{"source": "patent US12203941B2", "about": "“Methods and compositions for diagnosis and prognosis of renal injury and renal failure” (ASTUTE MEDICAL, INC., priority 2013, dated 2025)", "key": {"[1]": {"tested_on": "critically ill patients with either stage I or II Acute Kidney Injury Network (AKIN) criteria", "conditions": "for Urine volume, Hour 1: Hour 1 after FST; for Urine volume, Hour 1 / Urine volume, Hour 2 / Urine volume, Hour 3 / Urine volume, Hour 4 / Urine volume, Hour 5 / Urine volume, Hour 6: mean (s.e.); for Urine volume, Hour 2: Hour 2 after FST; for Urine volume, Hour 3: Hour 3 after FST; for Urine volume, Hour 4: Hour 4 after FST; for Urine volume, Hour 5: Hour 5 after FST; for Urine volume, Hour 6: Hour 6 after FST; for Tolerability / adverse events attributable to the FST: critically ill patients with AKI, well-resuscitated, iv furosemide 1.0 or 1.5 mg/kg, urine output replaced with isotonic fluids when appropriate", "source_text": "Replacement fluid was not protocolized in this group of subjects. Demographic, clinical data, urine sediment scores, and outcome data were abstracted from the case report forms.\nPrior to FST urine was collected. […] In order to minimize the risk of hypovolemia, urine output was replaced ml for ml each hour with either Ringers lactate or normal saline for six hours after the FST. The treating team could elect not to replace the volume if net volume loss was considered clinically desirable.\nUrine output was measured hourly for six hours and in total for 24 hours. […] Patients were followed for 14 days or hospital discharge, whichever occurred first. Fractional excretion of sodium was calculated as described in Bagshaw and colleagues. MDRD equation was used to calculate the eGFR as described in Levey and colleagues. Cardiovascular SOFA score and APACHE II score were calculated as previously described."}, "[2]": {"tested_on": "patients without AKI", "conditions": "previous investigators; cited from earlier work"}}, "note": "Read-outs that look alike come from different tables or passages of the source."}
{"molecule": "NS(=O)(=O)c1cc(C(=O)O)c(NCc2ccco2)cc1Cl", "note": "[Furosemide]", "values": [{"measurement": "Urine volume, Hour 1", "setting": "[1]; Combined n = 77, furosemide 1.0 or 1.5 mg/kg iv", "result": "251 (35.2) ml"}, {"measurement": "Urine volume, Hour 1", "setting": "[1]; Furosemide Naive n = 29", "result": "331 (68.5) ml"}, {"measurement": "Urine volume, Hour 1", "setting": "[1]; Non-naive N = 48", "result": "258 (37.2) ml"}, {"measurement": "Urine volume, Hour 2", "setting": "[1]; Combined n = 77", "result": "296 (35.8) ml"}, {"measurement": "Urine volume, Hour 2", "setting": "[1]; Furosemide Naive n = 29", "result": "348 (66.6) ml"}, {"measurement": "Urine volume, Hour 2", "setting": "[1]; Non-naive N = 48", "result": "264 (40.9) ml"}, {"measurement": "Urine volume, Hour 3", "setting": "[1]; Combined n = 77", "result": "246 (26.6) ml"}, {"measurement": "Urine volume, Hour 3", "setting": "[1]; Furosemide Naive n = 29", "result": "285 (52.1) ml"}, {"measurement": "Urine volume, Hour 3", "setting": "[1]; Non-naive N = 48", "result": "223 (28.6) ml"}, {"measurement": "Urine volume, Hour 4", "setting": "[1]; Combined n = 77", "result": "207 (24.1) ml"}, {"measurement": "Urine volume, Hour 4", "setting": "[1]; Furosemide Naive n = 29", "result": "240 (48.6) ml"}, {"measurement": "Urine volume, Hour 4", "setting": "[1]; Non-naive N = 48", "result": "188 (25.4) ml"}, {"measurement": "Urine volume, Hour 5", "setting": "[1]; Combined n = 77", "result": "175 (18.6) ml"}, {"measurement": "Urine volume, Hour 5", "setting": "[1]; Furosemide Naive n = 29", "result": "204 (35.9) ml"}, {"measurement": "Urine volume, Hour 5", "setting": "[1]; Non-naive N = 48", "result": "157 (22.5) ml"}, {"measurement": "Urine volume, Hour 6", "setting": "[1]; Combined n = 77", "result": "155 (17.4) ml"}, {"measurement": "Urine volume, Hour 6", "setting": "[1]; Furosemide Naive n = 29", "result": "167 (33.6) ml"}, {"measurement": "Urine volume, Hour 6", "setting": "[1]; Non-naive N = 48", "result": "147 (19.6) ml"}, {"measurement": "Tolerability / adverse events attributable to the FST", "setting": "[1]", "result": "these complications were not observed in this study"}, {"measurement": "Tolerability / adverse events attributable to the FST", "setting": "[1]; listed as furosemide", "result": "well tolerated with no episodes of hypotension or any other adverse event deemed attributable to the test"}, {"measurement": "Time of maximum urine flow rate (UFR) after FST", "setting": "[1]; hourly urine output for six hours after iv furosemide", "result": "within the first two to three hours"}, {"measurement": "Mean UO in response to the challenge", "setting": "[1]; in 6 hours after FST", "result": "over 1.3 liters"}, {"measurement": "Time of maximum diuretic effect", "setting": "[2]", "result": "within the first three hours"}]}
